Measurements as given in patent publication US20040235742A1, “Water channel opener compositions and medicinal compositions for ophthalmic use” (SANTEN PHARMACEUTICAL CO., LTD., priority 1999, published 2004).

Tests used:
[1] = Lacrimation stimulating activity of odorant substances in mice; assay type: in vivo; details: for Change in lacrimation output after 15 minutes (%): 30 mg/kg into the caudal vein, relative to the average of two measurements before administration
Method: Then, using (R)-(−)-carvone, (+)-pregon, borneol, trans-4-methylcyclohexanol, and menthol, all of which are odorant substances, each dissolved in 0.1% hydrogenated castor oil-saline, the lacrimation-stimulating activities of these substances were evaluated in vivo. The method used was as follows.
The tear fluid was collected from the left eye of mice at 15-min intervals using a glass microcapillary tube (aspiration capacity 0.5 μL/32 mm). The amount of aspirated tear fluid was measured in length (mm) using calipers and converted to μL for use as a marker of lacrimation output. Mice were anesthetized by intraperitoneal administration of Nembutal Anesthetic Solution (0.2 mL/10 g body weight, dosage 60 mg/kg). After the loss of pain reflex was confirmed in the mice, the measurement of lacrimation output was started. Measurements were invariably carried out at 15-min intervals from the start to the end. After two initial measurements made 15 minutes apart, each test substance (dosage 30 mg/kg) was immediately administered into the caudal vein of mice at a ratio of 0.1 mL/10 g body weight. Thereafter, the collection of tear fluid was carried out at 15-min intervals.
The change in lacrimation output was expressed in the percentage of the lacrimation output at each measurement relative to the average of the lacrimation outputs at two initial measurements prior to administration of each test substance.

sodium-potassium ATPase = details: olfactory tissue; Life Sciences, 20, 1051-1062 (1977); cited from earlier work
[2] = Combined use of an odorant substance and pilocarpine hydrochloride on lacrimation output in mice; assay type: in vivo
Method: The effect of the combined use of (R)-(−)carvone, i.e. the odorant substance used in Example 1, and pillocarpine hydrochloride was evaluated. The method used was as follows. The tear fluid was collected from the left eye of mice at 15-min intervals using a glass microcapillary tube (aspiration capacity 0.5 μL/32 mm). The amount of aspirated tear fluid was measured in length (mm) using calipers and converted to μL for use as a marker of lacrimation output. Mice were anesthetized by intraperitoneal administration of Nembutal Anesthetic Solution (0.2 mL/10 g body weight, dosage 60 mg/kg). After the loss of pain reflex was confirmed in the mice, the measurement of lacrimation output was started. Measurements were invariably carried out at 15-min intervals from the start to the end. After two initial measurements made 15 minutes apart, the test substance was immediately administered into the caudal vein of mice at a ratio of 0.1 mL/10 g body weight. Then, the measurement was repeated at 15-min intervals. Immediately after the measurement of lacrimation output at 15 minutes following administration of the test substance, […] pilocarpine hydrochloride was administered subcutaneously at 0.1 mL/10 g body weight (dosage 5 mg/kg). The collection of tear fluid was further carried out 4 times at 15-min intervals. […] The results on (R)-(−)-carvone (dosage 30 mg/kg) are shown in the graph in FIG. 3. […]

lens aldose reductase = biological target: T1, lens aldose reductase (Homo sapiens, UniProt P15121); details: Arch. Pharm. Res., 11, 312-314 (1988); cited from earlier work
T1 construct: host or cells: lens

Compound	Change in lacrimation output after 15 minutes (%) [1] [%]	other results
CC(C)=C1CC[C@@H](C)CC1=O [(+)-pregon]	70.2	
C=C(C)[C@@H]1CC=C(C)C(=O)C1 [(R)-(−)-carvone]	61.5	effect on sodium-potassium ATPase (sodium-potassium ATPase): influence; increase in lacrimation output ([1]; Example 3, 15 to 30 minutes after administration): not less than 60%; change in lacrimation output, combined use with pilocarpine hydrochloride ([2]; (R)-(-)-carvone 30 mg/kg i.v., then 0.005% pilocarpine hydrochloride s.c. (dosage 5 mg/kg) 15 minutes later, FIG. 3): marked increases in lacrimation; duration of the lacrimation effect, combined use with pilocarpine ([2]; Example 4 compared with Example 3): further prolongation of the effect; inhibition of lens aldose reductase (lens aldose reductase): inhibit
CC1(C)C2CCC1(C)C(O)C2 (stereo not shown) [Borneol, borneol]	97.5	
CC1CCC(C(C)C)C(O)C1 (stereo not shown) [Menthol, menthol]	88.1	
C[C@H]1CC[C@H](O)CC1 [Trans-4-methylcyclohexanol, trans-4-methylcyclohexanol]	85.4	
